Test results published in PubChem BioAssay AID1919009 (Molecular Pharmacology Branch, DTP, NCI, 2023).
Several values for one entry are separate records, joined by “and”; a condition that tells them apart may be missing. Identical values can stand only once.

System: K24384-001-R-PDC complex spheroid growth
Test: Anticancer human tumor K24384-001-R-PDC patient-derived pancreatic adenocarcinoma cell line growth inhibition [AhR]
Settings: for viability, T/C: stronger effect = lower value
Method in brief: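 Agents were dosed in half-log steps down from roughly clinical Cmax, or from 10 microM where Cmax was unknown, alone and with AhR antagonists. Read-out: percent test/control growth of tumor spheroids containing HUVEC and MSC stromal cells.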

[1] = curve of first compound, second compound 0.1 µM
[2] = curve of first compound, second compound 0.316 µM
[3] = curve of first compound, second compound 1 µM
[4] = curve of first compound, second compound 3.16 µM
[5] = curve of first compound, second compound 10 µM
[6] = second compound 0.1 µM, first compound 0.0316 µM
[7] = second compound 0.1 µM, first compound 0.1 µM
[8] = second compound 0.1 µM, first compound 0.316 µM
[9] = second compound 0.1 µM, first compound 1 µM
[10] = second compound 0.1 µM, first compound 3.16 µM
[11] = second compound 0.1 µM, first compound 10 µM
[12] = second compound 0.316 µM, first compound 0.0316 µM
[13] = second compound 0.316 µM, first compound 0.1 µM
[14] = second compound 0.316 µM, first compound 0.316 µM
[15] = second compound 0.316 µM, first compound 1 µM
[16] = second compound 0.316 µM, first compound 3.16 µM
[17] = second compound 0.316 µM, first compound 10 µM
[18] = second compound 1 µM, first compound 0.0316 µM
[19] = second compound 1 µM, first compound 0.1 µM
[20] = second compound 1 µM, first compound 0.316 µM
[21] = second compound 1 µM, first compound 1 µM
[22] = second compound 1 µM, first compound 3.16 µM
[23] = second compound 1 µM, first compound 10 µM
[24] = second compound 3.16 µM, first compound 0.0316 µM
[25] = second compound 3.16 µM, first compound 0.1 µM
[26] = second compound 3.16 µM, first compound 0.316 µM
[27] = second compound 3.16 µM, first compound 1 µM
[28] = second compound 3.16 µM, first compound 3.16 µM
[29] = second compound 3.16 µM, first compound 10 µM
[30] = second compound 10 µM, first compound 0.0316 µM
[31] = second compound 10 µM, first compound 0.1 µM
[32] = second compound 10 µM, first compound 0.316 µM
[33] = second compound 10 µM, first compound 1 µM
[34] = second compound 10 µM, first compound 3.16 µM
[35] = second compound 10 µM, first compound 10 µM
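Throughout, for viability, T/C: percent of DMSO vehicle-treated spheroid viability set as 100%.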

| Structure (SMILES) | IC50 [1] [nM] | IC50 [2] [nM] | IC50 [3] [nM] | IC50 [4] [nM] | IC50 [5] [nM] | viability, T/C [6] [%] | viability, T/C [7] [%] | viability, T/C [8] [%] | viability, T/C [9] [%] | viability, T/C [10] [%] | viability, T/C [11] [%] | viability, T/C [12] [%] | viability, T/C [13] [%] | viability, T/C [14] [%] | viability, T/C [15] [%] | viability, T/C [16] [%] | viability, T/C [17] [%] | viability, T/C [18] [%] | viability, T/C [19] [%] | viability, T/C [20] [%] | also measured |
| --- | --- | --- | --- | --- | --- | --- | --- | --- | --- | --- | --- | --- | --- | --- | --- | --- | --- | --- | --- | --- | --- |
| O=C(c1cc(Cc2n[nH]c(=O)c3ccccc23)ccc1F)N1CCN(C(=O)C2CC2)CC1 + Cc1ccccc1N=Nc1ccc(NC(=O)c2ccnn2C)c(C)c1 | > 10000 | > 10000 | > 10000 | > 10000 | > 10000 | 86.1 | 94.5 | 99.4 | 83.3 | 75.8 | 79.2 | 99.9 | 97.2 | 79.4 | 86.2 | 85.8 | 58 | 89.9 | 109 | 77.4 | viability, T/C [21]: 81.1%; viability, T/C [22]: 66.2%; viability, T/C [23]: 63.2%; viability, T/C [24]: 75.9%; viability, T/C [25]: 80.6%; viability, T/C [26]: 83.2%; viability, T/C [27]: 72.4%; viability, T/C [28]: 60.3%; viability, T/C [29]: 51.6%; viability, T/C [30]: 101%; viability, T/C [31]: 84.1%; viability, T/C [32]: 95.1%; viability, T/C [33]: 72.9%; viability, T/C [34]: 65.2%; viability, T/C [35]: 65.8% |
| Nc1ccn(C2OC(CO)C(O)C2(F)F)c(=O)n1 (centres undefined) + Cc1cncc(-c2nc(NCCc3c[nH]c4ccccc34)c3ncn(C(C)C)c3n2)c1 | 507 | 636 | 928 | 3070 | < 31.6 | 73.7 | 74.8 | 51.2 | 42.9 | 32.4 | 24.5 | 104 | 79.1 | 50.8 | 51.1 | 35.1 | 19.6 | 98.1 | 111 | 74.2 | viability, T/C [21]: 50.4%; viability, T/C [22]: 41.6%; viability, T/C [23]: 29.2%; viability, T/C [24]: 117%; viability, T/C [25]: 114%; viability, T/C [26]: 83.9%; viability, T/C [27]: 70.1%; viability, T/C [28]: 51.7%; viability, T/C [29]: 31.2%; viability, T/C [30]: 13.9%; viability, T/C [31]: 11.2%; viability, T/C [32]: 13.6%; viability, T/C [33]: 8.91%; viability, T/C [34]: 10.4%; viability, T/C [35]: 10.4% |
| NS(=O)(=O)OCC1CC(n2ccc3c(NC4CCc5ccccc54)ncnc32)CC1O (centres undefined) + Cc1cncc(-c2nc(NCCc3c[nH]c4ccccc34)c3ncn(C(C)C)c3n2)c1 | 2330 | 2320 | 2370 | 1510 | < 31.6 | 130 | 150 | 67.3 | 107 | 29.7 | 29.1 | 141 | 161 | 56.1 | 124 | 24 | 23.6 | 167 | 154 | 62 | viability, T/C [21]: 84.6%; viability, T/C [22]: 27.9%; viability, T/C [23]: 27%; viability, T/C [24]: 132%; viability, T/C [25]: 153%; viability, T/C [26]: 59.8%; viability, T/C [27]: 86.4%; viability, T/C [28]: 20.4%; viability, T/C [29]: 20.6%; viability, T/C [30]: 27.1%; viability, T/C [31]: 15.2%; viability, T/C [32]: 10.5%; viability, T/C [33]: 11.1%; viability, T/C [34]: 5.02%; viability, T/C [35]: 5.87% |
| CC(C)c1c(-c2ccccc2)nc2c(C#N)c[nH]n2c1=O + Cc1ccccc1N=Nc1ccc(NC(=O)c2ccnn2C)c(C)c1 | > 10000 | > 10000 | > 10000 | > 10000 | > 10000 | 114 | 121 | 123 | 108 | 88.8 | 86.2 | 112 | 124 | 121 | 128 | 104 | 89.7 | 117 | 109 | 113 | viability, T/C [21]: 103%; viability, T/C [22]: 105%; viability, T/C [23]: 109%; viability, T/C [24]: 98.2%; viability, T/C [25]: 109%; viability, T/C [26]: 124%; viability, T/C [27]: 114%; viability, T/C [28]: 90.8%; viability, T/C [29]: 122%; viability, T/C [30]: 132%; viability, T/C [31]: 141%; viability, T/C [32]: 114%; viability, T/C [33]: 119%; viability, T/C [34]: 126%; viability, T/C [35]: 119% |
| CCc1c2c(nc3ccc(O)cc13)-c1cc3c(c(=O)n1C2)COC(=O)[C@]3(O)CC | – | – | – | – | – | – | – | – | – | – | – | – | – | – | – | – | – | – | – | – | viability, T/C (compound 0.000949 µM): 70.9% and 79.9% and 78.5%; viability, T/C (compound 0.003 µM): 67% and 71.9% and 67.1%; viability, T/C (compound 0.00949 µM): 58.6% and 52.8% and 65%; viability, T/C (compound 0.03 µM): 43.8% and 54.9% and 51.5%; viability, T/C (compound 0.0949 µM): 38.5% and 51% and 50.3%; viability, T/C (compound 0.3 µM): 27.5% and 39.2% and 36.9%; IC50 (curve of compound): 20.9 nM and 48.4 nM and 58.2 nM |
| Nc1ccn(C2OC(CO)C(O)C2(F)F)c(=O)n1 (centres undefined) | – | – | – | – | – | – | – | – | – | – | – | – | – | – | – | – | – | – | – | – | viability, T/C (compound 0.0316 µM): 75.8% and 84.6% and 71%; viability, T/C (compound 0.1 µM): 67.7% and 76.7% and 59.5%; viability, T/C (compound 0.316 µM): 50.6% and 52.6% and 41.6%; viability, T/C (compound 1 µM): 42.8% and 39.7% and 32.8%; viability, T/C (compound 3.16 µM): 37.3% and 40.7% and 22.7%; viability, T/C (compound 10 µM): 28.5% and 31.3% and 20.2%; IC50 (curve of compound): 458 nM and 419 nM and 191 nM |
